Laboratory results reported in patent US20020193564A1, “Oligomeric chaperone proteins” (priority 1999, published 2002).

Columns and labels:
E. coli SV6 groEL673 = test: In vivo complementation of ts groEL673 at 43° C.; assay type: cell-based; settings: plasmids pJC, relative to growth at 30° C.
Procedure: In vivo Complementation Experiments.
Complementation experiments were performed by transforming electro-competent SV2 or SV6 cells with the pJC series of expression vectors and plating an aliquot of the transformation reactions directly at 43° C. The percentage of viable cells relative to the growth at 30° C. was determined. A representative number of clones which grew at 43° C. were incubated in absence of any selective markers at permissive temperature. After prolonged growth the loss of the pJC plasmids and the ts phenotype were verified. Each experiment was performed in duplicate. Plasmids carrying no groE genes or encoding the GroE proteins were used as negative or positive controls, respectively.

[1] = tested on: AI90 (ΔgroEL::kan^R) [pBADEL] E. coli strain; test: Plating ability of AI90 on GroEL depletion at 37° C.; assay type: cell-based
Procedure: AI90 (ΔgroEL::kan^R) [pBAD-EL] cells were transformed with the pJC vector series. Transformants were selected at 37° C. on LB supplemented with 50 μg.ml^−1 of kanamycin, 120 μg.mL^−1 of ampicillin, 25 μg.mL^−1 of chloramphenicol and 0.2% L(+)arabinose. Depletion of GroEL protein was analysed at 37° C. by plating the same quantity of AI90 [PBAD-EL+pJC vectors] cells on LB plates containing 1% D(+)glucose or various amount of arabinose.
Each experiment was performed in triplicate. Plasmids carrying no groE genes or encoding the GroE proteins were used as negative or positive controls, respectively.

[2] = target: T1, heat- and dithiothreitol-denatured mtMDH (Sus scrofa, UniProt P00346); test: In vitro refolding of denatured mtMDH; assay type: biochemical, pig; settings: 25° C., chaperone alone, FIG. 7b
T1 construct: Boehringer-Mannheim); purchased Boehringer-Mannheim; host or cells: pig heart
T1 sequence (P00346 25-338): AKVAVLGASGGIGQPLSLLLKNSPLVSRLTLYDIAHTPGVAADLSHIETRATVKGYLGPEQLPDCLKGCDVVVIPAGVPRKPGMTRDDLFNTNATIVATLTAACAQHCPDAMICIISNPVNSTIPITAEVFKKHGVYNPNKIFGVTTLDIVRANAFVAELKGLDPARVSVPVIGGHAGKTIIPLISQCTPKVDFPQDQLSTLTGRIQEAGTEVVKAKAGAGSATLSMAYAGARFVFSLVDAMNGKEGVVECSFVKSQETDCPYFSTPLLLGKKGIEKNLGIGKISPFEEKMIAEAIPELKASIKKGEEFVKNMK
Procedure: In vitro Refolding Experiments.
Refolding assays of pig heart mitochondrial malate dehydrogenase (mtMDH; Boehringer-Mannheim) and aggregation protection were carried out essentially as described (Peres Ben-Zvi, A. P., Chatellier, J., Fersht, A. R. & Goloubinoff, P. (1998) Proc. Natl. Acad. Sci. U.S.A. 95, 15275-15280). The concentrations of MC7 used were between 8-16 μM (reporter to protomer).

For “GroEL(1-548): key molecular chaperone in Escherichia coli, 14 subunits of 57.5 kD in two seven membered rings”, the “Relative colony forming ability, SV6 groEL673” value (E. coli SV6 groEL673) was 1, the “Plating ability, 0.00 % L(+)arabinose” value ([1]; 0.00% arabinose) was “+++ (growth identical to that in presence of 0.2% L(+)arabinose (100%), in terms of both number and size)” and the “Plating ability, 0.01 % L(+)arabinose” value ([1]; 0.01% arabinose) was “+++ (growth identical to that in presence of 0.2% L(+)arabinose (100%), in terms of both number and size)”. For the same substance, the “Plating ability, 0.10 % L(+)arabinose” value ([1]; 0.10% arabinose) was “+++ (growth identical to that in presence of 0.2% L(+)arabinose (100%), in terms of both number and size)”, the “Plating ability, 0.15 % L(+)arabinose” value ([1]; 0.15% arabinose) was “+++ (growth identical to that in presence of 0.2% L(+)arabinose (100%), in terms of both number and size)” and the “rate of refolding denatured mtMDH” value [2] was 0.04 nM/min.
